Measured values taken from patent US20240262822A1, “WDR5 INHIBITORS AND MODULATORS” (Vanderbilt University, priority 2021, published 2024).
Where two headings read alike, the source gives them in different places.

Experiments:
[1] = test system: MV4:11 human cancer cell lines; assay: Cellular viability / anti-proliferative activity, CellTiter-Glo, 5 day protocol; type: cell-based; conditions: Homo sapiens, MV4-11, 120 h, 5 day incubation
Experimental: Anti-proliferative activity using MLL-harboring cell lines. MV-4-11 and K562 cells are grown in IMDM media supplemented with 10% FBS and 1% penicillin/streptomycin, Molm-13 cells are cultured in RPMI-1640 media supplemented with 10% FBS and 1% penicillin/streptomycin. Viability assays are performed by dispensing 200 cells at 7200 cells/mL into each well of an opaque 384-well plate and adding compounds at the indicated concentrations in a final volume of 32 μL and a final concentration of DMSO of 0.3% for all samples. A certain range of compound concentrations is made through a series of 2-fold dilutions starting 30 μM at the highest, total 22 dilutions. After a set incubation period, 5 day protocol, the viability of cells in each well is assessed using the CellTiter-Glo assay (Promega), read on a 96 Microplane Luminometer (Cytation 3, BioTek). Serial dilutions of each cell type are performed in all assays to generate standard curves and the final densities of cells are determined within the dynamic range of the instrument. GI50 values are calculated based on XLfit software (IDBS, Guildford, UK) with Sigmoidal Dose-Response Model. Each compound is tested in minimum of two replicates. Data are expressed as mean.

WDR5 = target: T1, WDR5 (Homo sapiens, UniProt P61964); assay: Time Resolved-Fluorescence Energy Transfer (TR-FRET) competition assay, displacement of 10mer-Thr-FAM probe from His-tagged WDR5; type: binding; conditions: WDR5-His tag 2 nM, 10mer-Thr-FAM 150 nM, 60 minutes at room temperature
T1 construct: WDR5-His Tag (A23, residues 24-334) is expressed and purified in our lab; made in house
Procedure, shortened: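 Competitive TR-FRET using 2 nM His-tagged WDR5 (residues 24-334), 1 nM Tb-anti-His antibody and 150 nM 10mer-Thr-FAM probe; compounds in a 10-point, 5-fold series from 5 μM, ≤1% DMSO. Incubated 60 min at room temperature in PBS with 300 mM NaCl, 0.5 mM TCEP, 0.1% CHAPS, pH 7.2; 520/495 nm emission gave IC50, converted to Ki by the Wang equation.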

[2] = MV4:11 cells, read-out: GI50 for representative compounds on cellular proliferation of MV4:11 human cancer cell lines
[3] = read-out: Ki for Exemplified Compounds for Inhibition of WDR5 by TR-FRET assay

Structure (SMILES)	GI50 [1, 2]	Ki (WDR5; [3])	GI50 ([1]; MV4;11 cells, read-out: GI50 for additional WDR5 inhibitor compounds on cellular proliferation of MV4;11 human cancer cell lines)	Ki (WDR5; read-out: Ki for additional WDR5 inhibitor compounds for Inhibition of WDR5 by TR-FRET assay)
CCc1cc2c(N3CCc4c(cc(Cn5ccnc5)cc4-c4cn(C)nc4C(F)(F)F)C3=O)ccnc2c(=O)[nH]1 [Example 7, 4-(7-((1H-Imidazol-1-yl)methyl)-5-(1-methyl-3-(trifluoromethyl)-1H-pyrazol-4-yl)-1-oxo-3,4-dihydroisoquinolin-2(1H)-yl)-6-ethyl-1,7-naphthyridin-8(7H)-one and 7-((1H-imidazol-1-yl)methyl)-2-(6-ethyl-8-hydroxy-1,7-naphthyridin-4-yl)-5-(1-methyl-3-(trifluoromethyl)-1H-pyrazol-4-yl)-3,4-dihydroisoquinolin-1(2H)-one mixture]	1990 nM	< 0.02 nM	–	–
CCc1cc2c(N3CCc4c(cc(Cn5ccnc5)cc4-c4cn(C)nc4C(F)(F)F)C3=O)ccnc2c(N2CCN(C)CC2)n1 [Example 46, 7-((1H-Imidazol-1-yl)methyl)-2-(6-ethyl-8-(4-methylpiperazin-1-yl)-1,7-naphthyridin-4-yl)-5-(1-methyl-3-(trifluoromethyl)-1H-pyrazol-4-yl)-3,4-dihydroisoquinolin-1(2H)-one]	< 20 nM	< 0.02 nM	–	–
CCc1nc(N2CCc3c(cc(Cn4ccnc4)cc3-c3cn(C)nc3C(F)(F)F)C2=O)c2cc(OC)c(OC)cc2n1 [Example 63, 7-((1H-Imidazol-1-yl)methyl)-2-(2-ethyl-6,7-dimethoxyquinazolin-4-yl)-5-(1-methyl-3-(trifluoromethyl)-1H-pyrazol-4-yl)-3,4-dihydroisoquinolin-1(2H)-one]	< 20 nM	< 0.02 nM	–	–
COc1cc2nccc(N3CCc4c(cc(Cn5ccnc5)cc4-c4cn(C)nc4C(F)(F)F)C3=O)c2cc1OC [Example 16, 7-((1H-Imidazol-1-yl)methyl)-2-(6,7-dimethoxyquinolin-4-yl)-5-(1-methyl-3-(trifluoromethyl)-1H-pyrazol-4-yl)-3,4-dihydroisoquinolin-1(2H)-one]	< 20 nM	< 0.02 nM	–	–
CCc1cc2c(N3CCc4c(cc(Cn5ccnc5)cc4-c4cn(C)nc4C(F)(F)F)C3=O)ccnc2c(OCCOC)n1 [Example 33, 7-((1H-Imidazol-1-yl)methyl)-2-(6-ethyl-8-(2-methoxyethoxy)-1,7-naphthyridin-4-yl)-5-(1-methyl-3-(trifluoromethyl)-1H-pyrazol-4-yl)-3,4-dihydroisoquinolin-1(2H)-one]	< 20 nM	< 0.02 nM	–	–
COc1cc2c(N3CCc4c(cc(Cn5ccnc5)cc4-c4cn(C)nc4C(F)(F)F)C3=O)ncnc2cc1O [Example 23, 7-((1H-Imidazol-1-yl)methyl)-2-(7-hydroxy-6-methoxyquinazolin-4-yl)-5-(1-methyl-3-(trifluoromethyl)-1H-pyrazol-4-yl)-3,4-dihydroisoquinolin-1(2H)-one]	1280 nM	0.025 nM	–	–
CCc1cnc2c(c1)C(N1CCc3c(cc(Cn4ccnc4)cc3-c3cn(C)nc3C(F)(F)F)C1=O)COC2 (stereo not drawn) [Example 21, 7-((1H-Imidazol-1-yl)methyl)-2-(3-ethyl-5,8-dihydro-6H-pyrano[3,4-b]pyridin-5-yl)-5-(1-methyl-3-(trifluoromethyl)-1H-pyrazol-4-yl)-3,4-dihydroisoquinolin-1(2H)-one]	< 20 nM	< 0.02 nM	–	–
CCc1cc(OC)c2nncc(N3CCc4c(cc(Cn5ccnc5)cc4-c4cn(C)nc4C(F)(F)F)C3=O)c2c1 [Example 13, 7-((1H-Imidazol-1-yl)methyl)-2-(6-ethyl-8-methoxycinnolin-4-yl)-5-(1-methyl-3-(trifluoromethyl)-1H-pyrazol-4-yl)-3,4-dihydroisoquinolin-1(2H)-one]	< 20 nM	< 0.02 nM	–	–
CCc1cc2c(N3CCc4c(cc(Cn5ccnc5)cc4-c4cn(C)nc4C(F)(F)F)C3=O)cc(C)nc2c(OC)n1 [Example 48, 7-((1H-Imidazol-1-yl)methyl)-2-(6-ethyl-8-methoxy-2-methyl-1,7-naphthyridin-4-yl)-5-(1-methyl-3-(trifluoromethyl)-1H-pyrazol-4-yl)-3,4-dihydroisoquinolin-1(2H)-one]	< 20 nM	< 0.02 nM	–	–
COc1cc2nc(C)nc(N3CCc4c(cc(Cn5ccnc5)cc4-c4cn(C)nc4C(F)(F)F)C3=O)c2cc1OC [Example 15, 7-((1H-Imidazol-1-yl)methyl)-2-(6,7-dimethoxy-2-methylquinazolin-4-yl)-5-(1-methyl-3-(trifluoromethyl)-1H-pyrazol-4-yl)-3,4-dihydroisoquinolin-1(2H)-one]	< 20 nM	< 0.02 nM	–	–
CCc1cc2c(N3CCc4c(cc(Cn5ccnc5C)cc4-c4cn(C)nc4C(F)(F)F)C3=O)ccnc2c(OC)n1 [Example 10, 2-(6-Ethyl-8-methoxy-1,7-naphthyridin-4-yl)-7-((2-methyl-1H-imidazol-1-yl)methyl)-5-(1-methyl-3-(trifluoromethyl)-1H-pyrazol-4-yl)-3,4-dihydroisoquinolin-1(2H)-one]	< 20 nM	< 0.02 nM	–	–
COc1cc2nc(C)nc(N3CCc4c(cc(Cn5ccnc5)cc4-c4ccc(F)cc4C)C3=O)c2cc1OC [Example 66, 7-((1H-Imidazol-1-yl)methyl)-2-(6,7-dimethoxy-2-methylquinazolin-4-yl)-5-(4-fluoro-2-methylphenyl)-3,4-dihydroisoquinolin-1(2H)-one]	38 nM	0.02 nM	–	–
CCc1cc2c(N3CCc4c(cc(Cn5ccnc5)cc4-c4cn(C)nc4C(F)(F)F)C3=O)ccnc2c(OCC(F)F)n1 [Example 39, 7-((1H-Imidazol-1-yl)methyl)-2-(8-(2,2-difluoroethoxy)-6-ethyl-1,7-naphthyridin-4-yl)-5-(1-methyl-3-(trifluoromethyl)-1H-pyrazol-4-yl)-3,4-dihydroisoquinolin-1(2H)-one]	< 20 nM	< 0.02 nM	–	–
CCc1cc2c(N3CCc4c(cc(Cn5ccnc5)cc4-c4cn(C)nc4C(F)(F)F)C3=O)ccnc2c(-c2ccncc2)n1 [Example 45, 7-((1H-Imidazol-1-yl)methyl)-2-(6-ethyl-8-(pyridin-4-yl)-1,7-naphthyridin-4-yl)-5-(1-methyl-3-(trifluoromethyl)-1H-pyrazol-4-yl)-3,4-dihydroisoquinolin-1(2H)-one]	21 nM	< 0.02 nM	–	–
CCc1cc(C2CCOCC2)c2nccc(N3CCc4c(cc(Cn5ccnc5)cc4-c4cn(C)nc4C(F)(F)F)C3=O)c2c1 [Compound B-36]	–	–	23 nM	< 0.02 nM
CCOc1cc2ncnc(N3CCc4c(cc(Cn5ccnc5)cc4-c4cn(C)nc4C(F)(F)F)C3=O)c2cc1OC [Example 29, 7-((1H-Imidazol-1-yl)methyl)-2-(7-ethoxy-6-methoxyquinazolin-4-yl)-5-(1-methyl-3-(trifluoromethyl)-1H-pyrazol-4-yl)-3,4-dihydroisoquinolin-1(2H)-one]	164 nM	0.032 nM	–	–
COc1cc2c(N3CCc4c(cc(Cn5ccnc5)cc4-c4cn(C)nc4C(F)(F)F)C3=O)ncnc2cc1F [Example 32, 7-((1H-Imidazol-1-yl)methyl)-2-(7-fluoro-6-methoxyquinazolin-4-yl)-5-(l-methyl-3-(trifluoromethyl)-1H-pyrazol-4-yl)-3,4-dihydroisoquinolin-1(2H)-one]	< 20 nM	< 0.02 nM	–	–
CCc1cc2c(N3CCc4c(cc(Cn5ccnc5)cc4-c4cn(C)nc4C(F)(F)F)C3=O)ncnc2cc1OC [Example 43, 7-((1H-Imidazol-1-yl)methyl)-2-(6-ethyl-7-methoxyquinazolin-4-yl)-5-(1-methyl-3-(trifluoromethyl)-1H-pyrazol-4-yl)-3,4-dihydroisoquinolin-1(2H)-one]	< 20 nM	< 0.02 nM	–	–
